Here are results for 24 compounds from patent publication US20260207602A1, “EGFR INHIBITORS” (Blueprint Medicines Corporation, priority 2022, published 2026).

The IC50 is the midpoint of a concentration-inhibition curve.

One assay concerns the target T1, EGFR L858R (Homo sapiens, UniProt P00533, L858R).
T1 construct: purchased SignalChem E10-122BG
The assay can be described thus: Biochemical EGFR inhibition assay (Caliper mobility shift), EGFR L858R. Particulars: biochemical Caliper mobility shift assay, EGFR L858R enzyme; read-out: Enz EGFR L858R IC50. A digest of the protocol:
(§1)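 Apparent IC50 from Caliper separation of phospho-peptide from substrate. Conditions: 2.5 µM 5-FAM peptide, 1.0 mM ATP or ATP Km, pH 7.5 HEPES buffer, room temperature, 10–20% conversion, EDTA stop.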

For a further assay, the target named is T2, EGFR (d746-750) (Homo sapiens, UniProt P00533, DEL746-750).
T2 construct: purchased SignalChem E10-122JG
As to the kind of experiment: Biochemical EGFR inhibition assay (Caliper mobility shift), EGFR (d746-750). As to conditions: biochemical Caliper mobility shift assay, EGFR Exon 19-del enzyme; read-out: Enz EGFR Exon 19-del IC50. A digest of the protocol:
as §1

Assay [1] concerns the target intracellular phosphorylation of EGFR (Tyr1068) in PC-9 cells (Homo sapiens, UniProt P00533, DEL746-750). The assay can be described thus: PC-9 pEGFR AlphaLISA assay. It is filed as cell-based. Particulars: 4 hours incubation, read-out: Phos EGFR PC9 IC50. A digest of the protocol:
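PC-9 cells (EGFR del746-750) in phenol-free DMEM/10% FBS, adhered overnight, then exposed to 10-point 4-fold compound dilutions for 4 h at 37 °C. Lysates assayed for pEGFR Tyr1068 by AlphaLISA SureFire Ultra; IC50 from percent pEGFR inhibition vs log concentration.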
(In general: In Alpha technology, singlet oxygen from a donor bead excites a nearby acceptor bead.)

T1 sequence (P00533 25-1210 L858R): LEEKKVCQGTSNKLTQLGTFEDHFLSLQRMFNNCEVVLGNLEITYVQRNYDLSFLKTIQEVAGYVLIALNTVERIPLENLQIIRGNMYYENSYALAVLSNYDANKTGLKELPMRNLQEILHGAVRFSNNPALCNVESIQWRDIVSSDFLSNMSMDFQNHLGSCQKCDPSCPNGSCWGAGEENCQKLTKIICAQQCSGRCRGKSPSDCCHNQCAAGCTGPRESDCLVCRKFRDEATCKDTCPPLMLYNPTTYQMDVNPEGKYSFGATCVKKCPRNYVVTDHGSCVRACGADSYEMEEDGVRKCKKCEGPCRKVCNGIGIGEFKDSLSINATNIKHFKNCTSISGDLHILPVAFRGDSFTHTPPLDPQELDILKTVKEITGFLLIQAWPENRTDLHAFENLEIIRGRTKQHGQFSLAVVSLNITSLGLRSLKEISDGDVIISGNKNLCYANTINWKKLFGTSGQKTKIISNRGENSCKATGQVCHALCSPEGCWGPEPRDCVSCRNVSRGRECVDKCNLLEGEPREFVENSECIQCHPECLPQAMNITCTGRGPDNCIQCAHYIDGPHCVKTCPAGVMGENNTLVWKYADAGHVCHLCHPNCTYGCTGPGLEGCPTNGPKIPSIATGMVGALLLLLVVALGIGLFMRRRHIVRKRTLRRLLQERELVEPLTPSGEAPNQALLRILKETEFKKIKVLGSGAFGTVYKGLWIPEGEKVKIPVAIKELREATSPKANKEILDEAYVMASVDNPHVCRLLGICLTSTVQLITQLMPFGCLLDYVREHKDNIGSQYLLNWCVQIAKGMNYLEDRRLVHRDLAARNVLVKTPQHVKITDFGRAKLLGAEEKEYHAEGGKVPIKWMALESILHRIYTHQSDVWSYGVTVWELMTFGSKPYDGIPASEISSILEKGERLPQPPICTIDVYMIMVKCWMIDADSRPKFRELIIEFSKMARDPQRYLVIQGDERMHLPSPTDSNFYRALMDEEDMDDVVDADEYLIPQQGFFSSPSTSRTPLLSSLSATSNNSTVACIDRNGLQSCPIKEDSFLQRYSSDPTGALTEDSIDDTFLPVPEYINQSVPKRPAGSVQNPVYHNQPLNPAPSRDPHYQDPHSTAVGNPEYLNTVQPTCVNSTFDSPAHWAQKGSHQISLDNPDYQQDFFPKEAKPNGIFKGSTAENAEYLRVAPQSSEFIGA
T2 sequence (P00533 with tags, fused parts or gaps DEL746-750 limits assumed): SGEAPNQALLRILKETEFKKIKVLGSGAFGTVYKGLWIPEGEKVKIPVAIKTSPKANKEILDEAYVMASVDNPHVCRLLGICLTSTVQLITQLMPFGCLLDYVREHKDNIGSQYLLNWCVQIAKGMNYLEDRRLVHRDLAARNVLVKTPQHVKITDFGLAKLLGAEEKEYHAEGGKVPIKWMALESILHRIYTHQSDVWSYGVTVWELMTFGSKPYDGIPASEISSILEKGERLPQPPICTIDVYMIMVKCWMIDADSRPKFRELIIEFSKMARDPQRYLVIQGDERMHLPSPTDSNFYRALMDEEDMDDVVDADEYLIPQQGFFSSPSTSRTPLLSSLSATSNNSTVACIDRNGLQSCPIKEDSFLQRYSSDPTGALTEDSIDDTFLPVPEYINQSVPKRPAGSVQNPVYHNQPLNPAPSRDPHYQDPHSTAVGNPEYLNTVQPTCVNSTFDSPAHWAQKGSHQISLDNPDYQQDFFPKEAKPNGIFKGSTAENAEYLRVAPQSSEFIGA
intracellular phosphorylation of EGFR (Tyr1068) in PC-9 cells, sequence (P00533 with tags, fused parts or gaps DEL746-750): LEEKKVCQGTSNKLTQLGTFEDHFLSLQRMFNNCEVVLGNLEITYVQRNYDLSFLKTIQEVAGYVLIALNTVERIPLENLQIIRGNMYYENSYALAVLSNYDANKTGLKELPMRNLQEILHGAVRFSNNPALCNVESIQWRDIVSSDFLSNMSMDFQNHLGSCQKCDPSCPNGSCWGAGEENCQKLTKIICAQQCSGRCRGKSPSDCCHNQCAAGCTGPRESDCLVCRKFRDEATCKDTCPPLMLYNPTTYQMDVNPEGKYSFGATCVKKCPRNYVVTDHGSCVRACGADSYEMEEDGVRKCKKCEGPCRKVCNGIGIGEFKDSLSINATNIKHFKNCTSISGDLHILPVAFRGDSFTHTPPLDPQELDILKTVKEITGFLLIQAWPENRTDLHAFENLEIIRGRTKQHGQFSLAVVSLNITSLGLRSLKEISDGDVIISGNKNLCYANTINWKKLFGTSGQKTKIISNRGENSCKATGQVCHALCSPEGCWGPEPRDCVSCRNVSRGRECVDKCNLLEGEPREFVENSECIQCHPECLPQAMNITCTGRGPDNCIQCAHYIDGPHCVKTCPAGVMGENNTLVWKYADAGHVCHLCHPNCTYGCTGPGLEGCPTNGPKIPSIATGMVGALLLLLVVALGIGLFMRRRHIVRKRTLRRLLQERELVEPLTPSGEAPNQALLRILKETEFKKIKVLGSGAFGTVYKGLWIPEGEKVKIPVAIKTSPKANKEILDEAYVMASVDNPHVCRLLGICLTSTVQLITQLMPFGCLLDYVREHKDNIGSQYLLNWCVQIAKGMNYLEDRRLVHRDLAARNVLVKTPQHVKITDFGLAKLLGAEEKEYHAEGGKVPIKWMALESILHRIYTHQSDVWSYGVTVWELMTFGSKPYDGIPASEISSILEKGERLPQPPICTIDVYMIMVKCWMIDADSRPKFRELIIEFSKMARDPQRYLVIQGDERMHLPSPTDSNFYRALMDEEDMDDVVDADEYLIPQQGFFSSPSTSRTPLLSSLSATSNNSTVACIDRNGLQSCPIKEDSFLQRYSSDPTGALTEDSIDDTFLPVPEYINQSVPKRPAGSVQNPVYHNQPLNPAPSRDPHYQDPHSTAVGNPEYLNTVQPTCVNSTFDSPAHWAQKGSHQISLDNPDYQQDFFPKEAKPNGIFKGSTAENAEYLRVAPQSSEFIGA

As for `C[C@@H]1CN(c2cc(O[C@@H](C)CN(C)C)c3c(Nc4ccc5ncsc5c4)ncnc3c2)C[C@H](C)O1` (single isomer, unassigned) [Example 149], the results for the IC50 (on EGFR L858R; at EGFR (d746-750); in assay [1]) were above 50.1 nM, 10.1 to 50 nM and 10.1 to 50 nM, respectively.

As to `CC(CN(C)C)Oc1cc(N2CC(C)OC(C)C2)cc2ncnc(Nc3ccc4ncsc4c3)c12` (single isomer, unassigned) [Example 150], the IC50 was 10.1 to 50 nM on EGFR L858R, at most 10 nM at EGFR (d746-750) and at most 10 nM in assay [1].

Turning to `CN(C)C[C@@H](Oc1cc(-c2cnn(C)c2)cc2ncnc(Nc3ccc4ncsc4c3)c12)C(F)F` (single isomer, unassigned) [Example 151], the IC50 (at EGFR L858R; on EGFR (d746-750); in assay [1]) was at most 10 nM in each case.

Consider `CN(C)[C@H]1CC[C@@H]1Oc1cc(-c2cnn(C)c2)cc2ncnc(Nc3ccc4ncsc4c3)c12` (single isomer, unassigned) [Example 154], for which the IC50 (on EGFR L858R; on EGFR (d746-750); in assay [1]) was at most 10 nM each time.

Regarding `C[C@H](CN(C)C)Oc1cc(N2CC[C@@H](C(C)(C)O)C2)cc2ncnc(Nc3ccc4ncsc4c3)c12` (single isomer, unassigned) [Example 155], the IC50 (at EGFR L858R; on EGFR (d746-750); in assay [1]) was at most 10 nM each time.

With `C[C@H](Oc1cc(N2CCN(C)C2=O)cc2ncnc(Nc3ccc4ncsc4c3)c12)C1COC1` (single isomer, unassigned) [Example 157], the IC50 (at EGFR L858R; on EGFR (d746-750); in assay [1]) was at most 10 nM each time.

For `C[C@H](Oc1cc(N2CCN(C)C2=O)cc2ncnc(Nc3ccc4ncsc4c3)c12)C1COC1` (single isomer, unassigned) [Example 158], the IC50 on EGFR L858R was at most 10 nM; on EGFR (d746-750), at most 10 nM; in assay [1] it was 10.1 to 50 nM.

As for `C[C@@H](CN(C)C)Oc1cc(-c2cnn(C)c2)cc2ncnc(Nc3ccc4ncsc4c3)c12` (single isomer, unassigned) [Example 159, (S)—N-(5-((1-(dimethylamino)propan-2-yl)oxy)-7-(1-methyl-1H-pyrazol-4-yl)quinazolin-4-yl)benzo[d]thiazol-6-amine or (R)—N-(5-((1-(dimethylamino)propan-2-yl)oxy)-7-(1-methyl-1H-pyrazol-4-yl)quinazolin-4-yl)benzo[d]thiazol-6-amine], the IC50 was 10.1 to 50 nM on EGFR L858R, at most 10 nM on EGFR (d746-750) and 10.1 to 50 nM in assay [1].

As for `C[C@@H](CN(C)C)Oc1cc(-c2cnn(C)c2)cc2ncnc(Nc3ccc4ncsc4c3)c12` (single isomer, unassigned) [Example 160, (R)—N-(5-((1-(dimethylamino)propan-2-yl)oxy)-7-(1-methyl-1H-pyrazol-4-yl)quinazolin-4-yl)benzo[d]thiazol-6-amine or (S)—N-(5-((1-(dimethylamino)propan-2-yl)oxy)-7-(1-methyl-1H-pyrazol-4-yl)quinazolin-4-yl)benzo[d]thiazol-6-amine], the half-inhibitory concentration (IC50) (at EGFR L858R; on EGFR (d746-750); in assay [1]) was at most 10 nM in each case.

On to `CN1CC[C@@H](F)[C@@H](Oc2cc(-c3cnn(C)c3)cc3ncnc(Nc4ccc5ncsc5c4)c23)C1` (single isomer, unassigned) [Example 161], for which the IC50 (on EGFR L858R; at EGFR (d746-750); in assay [1]) was at most 10 nM throughout.

With `CN1CC[C@@H](F)[C@@H](Oc2cc(-c3cnn(C)c3)cc3ncnc(Nc4ccc5ncsc5c4)c23)C1` (single isomer, unassigned) [Example 162], the IC50 on EGFR L858R was at most 10 nM; on EGFR (d746-750), at most 10 nM; in assay [1] it was 10.1 to 50 nM.

As for `COc1cc2ncnc(Nc3ccc4ncsc4c3)c2cc1-c1cnn(C2CCN(C)C[C@H]2F)c1` (single isomer, unassigned) [Example 166], the IC50 (on EGFR L858R; on EGFR (d746-750); in assay [1]) was at most 10 nM throughout.

With `COc1cc2ncnc(Nc3ccc4ncsc4c3)c2cc1-c1cnn(C2CCN(C)C[C@H]2F)c1` (single isomer, unassigned) [Example 167], the values for the IC50 (on EGFR L858R; on EGFR (d746-750); in assay [1]) were 10.1 to 50 nM, at most 10 nM and 10.1 to 50 nM, respectively.

In the case of `COc1nn(C)cc1-c1cc(O[C@H](C)C2COC2)c2c(Nc3ccc4ncsc4c3)ncnc2c1` (single isomer, unassigned) [Example 170], the IC50 (at EGFR L858R; on EGFR (d746-750); in assay [1]) was at most 10 nM throughout.

Regarding `CC(Oc1cc(-c2cn(C)nc2OC(F)F)cc2ncnc(Nc3ccc4ncsc4c3)c12)C1COC1` (single isomer, unassigned) [Example 172], the IC50 on EGFR L858R was at most 10 nM; on EGFR (d746-750), at most 10 nM; in assay [1], 10.1 to 50 nM.

On to `CC(Oc1cc(-c2cn(C)nc2OC(F)F)cc2ncnc(Nc3ccc4ncsc4c3)c12)C1COC1` (single isomer, unassigned) [Example 173], for which the IC50 (on EGFR L858R; at EGFR (d746-750); in assay [1]) was at most 10 nM in each case.

`C[C@@H](Oc1cc(-c2cn(C)n(C(F)F)c2=O)cc2ncnc(Nc3ccc4ncsc4c3)c12)C1COC1` (single isomer, unassigned) [Example 174]: the IC50 (at EGFR L858R; at EGFR (d746-750); in assay [1]) was at most 10 nM throughout.

Consider `C[C@@H](Oc1cc(-c2cn(C)n(C(F)F)c2=O)cc2ncnc(Nc3ccc4ncsc4c3)c12)C1COC1` (single isomer, unassigned) [Example 175], for which the values for the IC50 (at EGFR L858R; on EGFR (d746-750); in assay [1]) were at most 10 nM, at most 10 nM and 10.1 to 50 nM, respectively.

As for `CN(C)C[C@H](Oc1cc(-c2cnn(C)c2)cc2ncnc(Nc3ccc4ncsc4c3)c12)C(F)(F)F` (single isomer, unassigned) [Example 178], the IC50 (at EGFR L858R; on EGFR (d746-750); in assay [1]) was at most 10 nM in each case.

For the compound `CN(C)C[C@H](Oc1cc(-c2cnn(C)c2)cc2ncnc(Nc3ccc4ncsc4c3)c12)C(F)(F)F` (single isomer, unassigned) [Example 179], the IC50 at EGFR L858R is above 50.1 nM; at EGFR (d746-750) it was 10.1 to 50 nM; in assay [1] it was above 50.1 nM.

Regarding `COC[C@H](C)Oc1cc(N2CCN(C)CC2)cc2ncnc(Nc3ccc4ncsc4c3)c12` (single isomer, unassigned) [Example 205], the IC50 at EGFR L858R is at most 10 nM; on EGFR (d746-750), at most 10 nM; in assay [1], 10.1 to 50 nM.

In the case of `C[C@@H](Oc1cc(-c2cnn(C)c2)cc2ncnc(Nc3ccc4ncsc4c3)c12)[C@H]1CNCCO1` (single isomer, unassigned) [Example 207], the IC50 (on EGFR L858R; on EGFR (d746-750); in assay [1]) was at most 10 nM throughout.

`C[C@@H](Oc1cc(-c2cnn(C)c2)cc2ncnc(Nc3ccc4ncsc4c3)c12)[C@H]1CN(C)CCO1` (single isomer, unassigned) [Example 209]: the IC50 (at EGFR L858R; at EGFR (d746-750); in assay [1]) was at most 10 nM each time.

On to `COC[C@@H](C)Oc1cc(N2CCN(C)C[C@H]2C)cc2ncnc(Nc3ccc4ncsc4c3)c12` (single isomer, unassigned) [Example 211], for which the values for the IC50 (at EGFR L858R; at EGFR (d746-750); in assay [1]) were above 50.1 nM, 10.1 to 50 nM and above 50.1 nM, respectively.
